Reference: patent US20180228124A1, “ANIMAL LITTER COMPRISING CINNAMIC AND/OR ROSMARINIC COMPOUNDS” (The Clorox Company, priority 2017, published 2018)

Tested on: ammonia formation
Assay: Ammonia formation in sodium bentonite clay litter contacted with feline urine, monitored daily
Settings: for inhibition of ammonia formation: 0.02 g per 100 g of litter (0.02% by weight); for inhibition of ammonia formation / ammonia at day 11: FIG. 2; for Day 11 NH3 PPM (mean): treatment dosed at 0.5 g per 100 g of litter, FIG. 3 / FIG. 4 data; for ammonia formation versus virgin clay litter control: 0.5 g per 100 g of litter, FIG. 3
Protocol: The efficacy of various anti-oxidant rich spices was tested for ability to inhibit ammonia growth in litter compositions. FIG. 1 illustrates the results for each test that was performed. Each litter substrate included sodium bentonite clay. A control included virgin clay, with no added spice. Each of the other samples tested included a particular spice, dosed onto or into the clay litter substrate at 1.5 g per 100 g of clay substrate (a 1.5% loading of each of the tested spices). The tested spices were cinnamon, peppermint, rosemary, rubbing sage, spearmint, star anise, sumac, thyme, and turmeric. A control was also tested that included no spice at all. Each sample was contacted with 20 mL of feline urine, and then monitored over a period of 11 days, with the mean PPM of ammonia recorded for each day.
Each of the treatments tested in FIG. 3 were dosed at 0.5 g per 100 g of litter. Many of the other treatments tested were similarly dosed, unless stated otherwise (i.e., 0.5 g per 100 g of litter).

C[C@H]1[C@H](C)CC[C@]2(C(=O)O)CC[C@]3(C)C(=CC[C@@H]4[C@@]5(C)CC[C@H](O)C(C)(C)[C@@H]5CC[C@]43C)[C@H]12 [ursolic acid, Ursolic Acid]
inhibition of ammonia formation: significant inhibition of ammonia formation

CC(C)c1cc2c(c(O)c1O)[C@@]1(C(=O)O)CCCC(C)(C)[C@@H]1CC2 [carnosic acid, Carnosic Acid]
inhibition of ammonia formation: significant inhibition of ammonia formation

O=C(O)/C=C/c1ccc(O)cc1 [p-coumaric acid, p-Coumaric Acid]
Day 11 NH3 PPM (mean): 26.199 PPM

borate [reference compound]
ammonia at day 11 (litter substrate treated with 0.44% borate): 76 ppm

CCOC(=O)/C=C/c1ccccc1 [Ethyl cinnamate, Ethyl Cinnamate, reference compound]
ammonia formation versus virgin clay litter control: promotes ammonia (odor) formation | Day 11 NH3 PPM (mean): 126.324 PPM

O=C(O)/C=C/c1ccccc1 [Trans-cinnamic acid, Trans-Cinnamic Acid]
Day 11 NH3 PPM (mean): 4.493 PPM

O=C(O)CCc1ccccc1 [Hydrocinnamic acid]
Day 11 NH3 PPM (mean): 45.720 PPM

COc1cc(/C=C/C(=O)O)ccc1O [Ferulic acid, Ferulic Acid]
Day 11 NH3 PPM (mean): 62.182 PPM

O.O.O.O.O.O.O.O.O.O.O.O.O=S(=O)([O-])[O-].O=S(=O)([O-])[O-].[Al+3].[K+] [alum, hydrated potassium aluminum sulfate, reference compound]
ammonia formation versus virgin clay litter control: better than the virgin clay litter control

COc1cc(/C=C/C(=O)O)cc(OC)c1O [Sinapic acid, Sinapic Acid]
Day 11 NH3 PPM (mean): 38.428 PPM

O=C([O-])[O-].O=C([O-])[O-].OO.OO.OO.[Na+].[Na+].[Na+].[Na+] [sodium percarbonate, reference compound]
ammonia formation versus virgin clay litter control: better than the virgin clay litter control

O=C(O)/C=C/c1ccc(O)c(O)c1 [Caffeic acid, Caffeic Acid]
ammonia at day 11 (0.5% caffeic acid (0.5 g per 100 g of litter)): less than 60 ppm | ammonia at day 11 (1% caffeic acid (1 g per 100 g of litter)): less than 40 ppm | Day 11 NH3 PPM (mean): 47.894 PPM

O=C(/C=C/c1ccc(O)c(O)c1)O[C@H](Cc1ccc(O)c(O)c1)C(=O)O [Rosmarinic acid, Rosmarinic Acid]
efficacy of odor inhibition compared with 0.44% borate treated litter (0.5% rosmarinic acid, FIG. 4): comparable in efficacy to the borate treated litter substrate | Day 11 NH3 PPM (mean): 20-30 PPM

O=C/C=C/c1ccccc1 [Cinnamaldehyde]
Day 11 NH3 PPM (mean): 4.150 PPM

CC(O)C(=O)[O-].[Ag+] (stereo not shown) [silver lactate, reference compound]
ammonia formation versus virgin clay litter control: better than the virgin clay litter control
